From patent US6815448B2, “Azaheterocyclylmethyl derivatives of 7,8-dihydro-1,6,9-trioxa-3-aza-cyclopenta[a]naphthalene as 5-HT1A antagonists” (Wyeth, priority 2001, dated 2004) come the findings set out here.

The target of series [1] is T1, cloned human 5-HT1A receptors (Homo sapiens, UniProt P08908).
T1 construct: expressed in transfected cells
T1 sequence (P08908 1-422): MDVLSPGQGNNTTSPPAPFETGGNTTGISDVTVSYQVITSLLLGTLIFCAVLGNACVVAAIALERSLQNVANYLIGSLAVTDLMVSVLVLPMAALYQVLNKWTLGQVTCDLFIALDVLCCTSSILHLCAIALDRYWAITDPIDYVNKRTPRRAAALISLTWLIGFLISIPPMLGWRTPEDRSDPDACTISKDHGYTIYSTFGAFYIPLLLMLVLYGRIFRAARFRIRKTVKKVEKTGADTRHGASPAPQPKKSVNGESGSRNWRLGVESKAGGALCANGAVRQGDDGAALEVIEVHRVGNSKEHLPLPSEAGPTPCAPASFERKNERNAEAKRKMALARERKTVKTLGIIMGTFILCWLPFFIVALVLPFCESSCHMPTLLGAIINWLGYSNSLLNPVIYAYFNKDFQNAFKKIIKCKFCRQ
In words: 35S-GTPγS binding assay, reversal of the standard agonist 8-OH-DPAT. It counts as biochemical. The following applies: for 5-HT1A Function Imax (maximum inhibitory effect): value in parentheses. The procedure:
Antagonist activity at 5-HT1A receptors was established by using a ^35S-GTPγS binding assay similar to that used by Lazareno and Birdsall (Br. J. Pharmacol. 109: 1120, 1993), in which the test compound's ability to affect the binding of ^35S-GTPγS to membranes containing cloned human 5-HT1A receptors was determined. Agonists produce an increase in binding whereas antagonists produce no increase but rather reverse the effects of the standard agonist 8-OH-DPAT. The test compound's maximum inhibitory effect is represented as the Imax, while its potency is defined by the IC50.

A further series addresses T2, human 5-HT1A receptors (Homo sapiens, UniProt P08908).
T2 construct: expressed in transfected cells; host or cells: CHO cells
T2 sequence (P08908 1-422): T1 sequence (P08908 1-422)
In words: [3H] 8-OH-DPAT displacement from 5-HT1A receptor. Type of series: binding. The following applies: CHO cells stably transfected with human 5-HT1A receptors, read-out: 5-HT1A Receptor Affinity KI. An excerpt: High affinity for the serotonin 5-HT1A receptor was established by testing the claimed compound's ability to displace [^3H] 8-OH-DPAT (dipropylaminotetralin) from the 5-HT1A serotonin receptor following a modification of the procedure of Hall et al. J. Neurochem. 44, 1685 (1985) which utilizes CHO cells stably transfected with human 5-HT1A receptors.

Where [2] appears, read: 35S-GTPγS binding, membranes with cloned human 5-HT1A receptors, antagonist potency, read-out: 5-HT1A Function IC50.

Where a name gives a salt, the structure may show the parent alone. Read-outs that look alike come from different tables or passages of the source.

Consider `Cc1nc2ccc3c(c2o1)O[C@@H](CN1CC=C(c2cccc(C(F)(F)F)c2)CC1)CO3` [Example 5], for which the IC50 (as a rule, the concentration that gives 50% inhibition) in series [1] (setting [2]) amounted to 798 nM. Also, the “5-HT1A Function Imax (maximum inhibitory effect)” value in series [1] (35S-GTPγS binding) was 97.0. Moreover, the Ki (as a rule, the equilibrium dissociation constant of an inhibitor or competing ligand from its target) at human 5-HT1A receptors worked out at 39.4 nM.
Consider `Cc1nc2ccc3c(c2o1)OC(CN1CCC(C(=O)c2ccc(F)cc2)CC1)CO3` (centres unmarked) [Example 4, (4-Fluorophenyl) (1-[2-methyl-7,8-dihydro-1,6,9-trioxa-3-aza-cyclopenta[a]naphthalen-8-ylmethyl]-4-piperidinyl)methanone], for which, on human 5-HT1A receptors, the Ki was determined as 202 nM.
Turning to `Cc1nc2ccc3c(c2o1)O[C@@H](CN1CC=C(c2cccc(C(F)(F)F)c2)CC1)CO3` (as salt: fumarate) [Example 5], the melting point (usually the temperature of the solid-liquid transition) lay within 170 to 173 °C.
The compound `Cc1nc2ccc3c(c2o1)OC(CN1CCC(n2c(=O)[nH]c4ccccc42)CC1)CO3` (centres unmarked) [Example 2, 1-[1-(2-Methyl-7,8-dihydro-1,6,9-trioxa-3-aza-cyclopenta[a]naphthalen-8-ylmethyl)-piperidin-4-yl]-1,3-dihydro-2H-benzimidazol-2-one] registered a melting point of 218 to 220 °C. In addition, the IC50 in series [1] was found to be 2.7 nM. In addition, in series [1] (35S-GTPγS binding), the “5-HT1A Function Imax (maximum inhibitory effect)” value worked out at 42.0. Also, the Ki at human 5-HT1A receptors was 1 nM.
The matching figures for `Cc1nc2ccc3c(c2o1)OC(CN1CCC(O)(c2cccc(C(F)(F)F)c2)CC1)CO3` (centres unmarked) [Example 3, 1-(2-Methyl-7,8-dihydro-1,6,9-trioxa-3-aza-cyclopenta[a]naphthalen-8-ylmethyl)-4-[3-(trifluoromethyl)phenyl]-4-piperidinol]: 148 to 151 °C, 47 nM, 47.0 (47.0) and 6.52 nM.
`Cc1nc2ccc3c(c2o1)OC(CN1CCC2(CC1)C(=O)NCN2c1ccccc1)CO3` (centres unmarked) (as salt: fumarate) [Example 1, 8-(2-Methyl-7,8-dihydro-1,6,9-trioxa-3-aza-cyclopenta[a]naphthalen-8-ylmethyl)-1-phenyl-1,3,8triazaspiro[4.5]decan-4-one] yielded a melting point of 240 °C.
`Cc1nc2ccc3c(c2o1)OC(CN1CCC2(CC1)C(=O)NCN2c1ccccc1)CO3` (centres unmarked) [Example 1, 8-(2-Methyl-7,8-dihydro-1,6,9-trioxa-3-aza-cyclopenta[a]naphthalen-8-ylmethyl)-1-phenyl-1,3,8triazaspiro[4.5]decan-4-one]: the IC50 in series [1] (setting [2]) was determined as 1050 nM. In addition, the “5-HT1A Function Imax (maximum inhibitory effect)” value in series [1] (35S-GTPγS binding) was 60.0. In addition, the Ki on human 5-HT1A receptors was found to be 0.93 nM.
With `Cc1nc2ccc3c(c2o1)OC(CN1CCCCC1)CO3` (centres unmarked) [Example 6, 2-Methyl-8-(piperidin-1-ylmethyl)-7,8-dihydro-1,6,9-trioxa-3-aza-cyclopenta[a]naphthalene], the Ki on human 5-HT1A receptors came out at 173 nM.
On to `Cc1nc2ccc3c(c2o1)OC(CN1CCC(C(=O)c2ccc(F)cc2)CC1)CO3` (centres unmarked) (as salt: fumarate) [Example 4, (4-Fluorophenyl) (1-[2-methyl-7,8-dihydro-1,6,9-trioxa-3-aza-cyclopenta[a]naphthalen-8-ylmethyl]-4-piperidinyl)methanone], for which the melting point fell in the range of 229 to 230 °C.
The compound `Cc1nc2ccc3c(c2o1)OC(CN1CCCCC1)CO3` (centres unmarked) (as salt: fumarate) [Example 6, 2-Methyl-8-(piperidin-1-ylmethyl)-7,8-dihydro-1,6,9-trioxa-3-aza-cyclopenta[a]naphthalene] came in with a melting point of 109 to 112 °C.
